15 molecules from patent US6440968B1, “Use of maduraohtalazine derivatives as inhibitors of proinflammatory cytokines” (Elbion G.m.b.H., priority 1999, dated 2002) can be followed below.

As a reminder, the IC50 is the concentration needed to halve the response being measured. Higher therefore signals a need for much substance. Usually melting point stands for the temperature, or range, at which the solid turns liquid.

For data set [1], the system named is IL-2 release from Jurkat cells. As to the kind of experiment: Inhibition of IL-2 release from Jurkat cells. The following applies: Homo sapiens; Jurkat cells stimulated with ionomycin/PMA, IL-2 ELISA of supernatants. It is filed as cell-based. The procedure:
(§1) To determine the effect of the compounds according to the invention on the said cytokines, the inhibition of the release of IL-2,IL-4 and IL-5 from T cells was investigated in vitro.
Jurkat cells (clone E6-1, batch F-12871, from ATCC, Rockville, Md.) are seeded at about 100,000 cells in 50μ per well in microtitre plates and preincubated in an incubator (5% CO2/37° C./100% humidity). The medium employed is RPMI-1640 with HEPES/10% FCS/2 mM glutamine/100 U/m penicillin/100 mg/m streptomycin and 50 μM mercaptoethanol. After 3 hours, the substances to be tested are applied in various concentrations (100μ per well). To determine the spontaneous value and maximum values, in each case only medium/0.2% DMSO is applied. 30 minutes after application of substance and incubation, stimulation is carried out with in each case 25μ of ionomycin (final concentration 1 μM, Sigma I-0634) and phorbol myristate acetate (PMA, final concentration 25 ng/m, Sigma P-8139) per well. The spontaneous value receives 50μ of medium in place of ionomycin/PMA. Incubation overnight is then carried out. The supernatants are measured undiluted in an IL-2 ELISA (Pharmingen, capture mab: 18951 D detection mab: 20672 D). The IC50 determination was analysed by a logit-log plot.

Data set [2] relates to IL-4 release from D10.G4.1 cells. As to the kind of experiment: Inhibition of IL-4 release from D10.G4.1 cells (D10). It is filed as cell-based. As to conditions: D10 cells stimulated with anti-CD3 antibody, IL-4 ELISA of supernatants. The protocol: as §1
3 days after thawing and cultivating D10 cells in medium (RPMI-1640 with HEPES/10% FCS/2 mM glutamine/100 U/m penicillin/100 mg/m streptomycin and 50 μM mercaptoethanol) with Rat Stim™ (Collaborative Biomedical Products, Bedford Mass.) they are spun down, washed with medium without Rat Stim™, seeded at a concentration of 40,000 to 60,000 cells per well in a microtitre plate and incubated at 37° C./5% CO2/100% humidity for 3.5 hours. The substances to be tested are then applied in various concentrations in each case 50μ per well. The determinations of the maximum value and spontaneous value each receive 50μ of medium/0.4% DMSO.
After a further 30 minutes of incubation, stimulation is carried out with in each case 50μ of anti-CD3 antibody (145-2C11, Cedarlane Laboratories Limited, Hornby/Ontario) per well (final dilution 1:100). The determination of the spontaneous value receives 50μ of medium. After incubation overnight, the supernatants are measured in an IL-4 ELISA (Pharmingen: capture mab: 18031D; detection mab: 18042 D). The IC50 determination was analysed by a logit-log plot.
A general note: In an ELISA, binding on a coated surface is turned into a signal by an enzyme label.

The subject of data set [3] is IL-5 release from D10.G4.1 cells. The experiment in a line: Inhibition of IL-5 release from D10.G4.1 cells (D10). It is filed as cell-based. As to conditions: D10 cells stimulated with anti-CD3 antibody, IL-5 ELISA of supernatants. The protocol: as §1
3 days after thawing and cultivating D10 cells in medium (RPMI-1640 with HEPES/10% FCS/2 mM glutamine/100 U/m penicillin/100 mg/m streptomycin and 50 μM mercaptoethanol) with Rat Stirm™ (Collaborative Biomedical Products, Bedford Mass.) they are spun down, washed with medium without Rat Stim™, seeded at a concentration of 40,000 to 60,000 cells per well in a microtitre plate and incubated at 37° C./5% CO2/100% humidity for 3.5 hours. The substances to be tested are then applied in various concentrations in each case 50μ per well. The determinations of the maximum value and spontaneous value each receive 50μ d of medium/0.4% DMSO. After a further 30 minutes of incubation, stimulation is carried out with in each case 50μ of anti-CD3 antibody (145-2C11, Cedarlane Laboratories Limited, Hornby/Ontario) per well (final dilution 1:100). The determination of the spontaneous value receives 50μ of medium. After incubation overnight, the supernatants are measured in an IL-5 ELISA (Pharmingen: capture mab: 18051D; detection mab: 18062 D). The IC50 determination was analysed by a logit-log plot.

For data set [4], the system named is pulmonary infiltration of eosinophils. The experiment in a line: Inhibition of the late phase eosinophilia 24 h after challenge of actively sensitized guinea pigs by ovalbumin inhalation. As to conditions: 10 mg/kg i.p. 2 h before challenge, bronchoalveolar lavage 24 h after ovalbumin challenge; for Eosinophils B = eosinophils in the substance-treated group with ovalbumin challenge: mean. It is filed as in vivo, Dunkin-Hartley guinea pigs. The protocol: The inhibition of the pulmonary infiltration of eosinophils by the substances is examined in an in vivo test on Dunkin-Hartley guinea pigs which have been actively sensitized against ovalbumin. The sensitization is effected by two subcutaneous injections of a suspension of 10 μg of ovalbumin together with 1 mg of aluminium hydroxide in 0.5 m of physiological saline as adjuvant at an interval of 14 days. 7 days after the second injection, the animals in the control group which are to be exposed to an ovalbumin aerosol are pretreated with mepyramine maleate (10 mg/kg i.p.) in order to protect from anaphylactic death. After 30 minutes, the animals are exposed in a plastic box for 30 sec to an ovalbumin aerosol (0.5 mg/m ) which is produced by an atomizer driven by compressed air (19.6 kPa). Control animals are exposed to an aerosol of physiological saline. 24 hours after the exposure to ovalbumin aerosol (challenge) the animals are anaesthetized with an overdose of ethylurethane (1.5 g/kg of body weight i.p.), and a bronchoalveolar lavage is carried out with 2×5 m of physiological saline. The lavage fluid is collected and centrifuged at 300 rpm for 10 min, and then the cell pellet is resuspended in 1 m of physiological saline. The eosinophils are stained using the Becton-Dickinson test kit (N.5877) for eosinophils and are counted in a Neubauer chamber. Each test includes 2 control groups (exposure to a physiological saline aerosol and exposure to an ovalbumin solution aerosol).
The test substances are administered intraperitoneally or orally as suspension in 10% polyethylene glycol 300 and 0.5% strength 5-hydroxyethylcellulose 2 hours before the allergen challenge. The control groups are treated with the vehicle in a form corresponding to the administration of the test substance. The number of animals in each control and test group is 3-10.

With `COc1c2c(c(O)c3c1C(=O)c1c(cc(O)c(C)c1O)C3=O)-c1c(cc3cn[nH]c(=O)c3c1O)CC2` [Compound 1, 10,12,15,16-Tetrahydroxy-8-methoxy-11-methyl-9,14-dioxo-6,7,9,14-tetrahydronaphthaceno[1,2-g]phthalazin-1-one], the IC50 is 80 nM in data set [1], 860 nM in data set [2] and 450 nM in data set [3]. Moreover, the “Inhibition (of late phase eosinophilia)” value in data set [4] stood at 112.4. In addition, the “Eosinophils B = eosinophils in the substance-treated group with ovalbumin challenge” value in data set [4] is on record as 0.51 10^6/animal. In the case of `COc1c2c(c(O)c3c1C(=O)c1c(O)cc(O)cc1C3=O)-c1c(cc3c(C)nn(C)c(=O)c3c1O)CC2` [Compound 2, 2-Methyl-10,12,15,16-tetrahydroxy-8-methoxy-1-methyl-9,14-dioxo-6,7,9,14-tetrahydronaphthaceno[1,2-g]phthalazin-1-one], the IC50 was determined as 1460 nM in data set [2] and 880 nM in data set [3]. On to `CCCn1ncc2cc3c(c(O)c2c1=O)-c1c(O)c2c(c(OC)c1CC3)C(=O)c1c(cc(O)c(C)c1O)C2=O` [Compound 3, 2-Propyl-10,12,15,16-tetrahydroxy-8-methoxy-11-methyl-9,14-dioxo-6,7,9,14-tetrahydronaphthaceno[1,2-g]phthalazin-1-one], for which the melting point was 350 to 351 °C. Further, in data set [2], the midpoint of inhibition, the IC50, lay at 2910 nM. Take `COc1c2c(c(O)c3c1C(=O)c1c(cc(O)c(C)c1O)C3=O)-c1c(cc3cnn(CCO)c(=O)c3c1O)CC2` [Compound 4, 2-(2-Hydroxyethyl)-10,12,15,16-tetrahydroxy-8-methoxy-11-methyl-9,14-dioxo-6,7,9,14-tetrahydronaphthaceno[1,2-g]phthalazin-1-one]: the melting point is above 300 °C. Regarding `COc1c2c(c(O)c3c1C(=O)c1c(cc(O)c(C)c1O)C3=O)-c1c(cc3cnn(-c4ccccc4)c(=O)c3c1O)CC2` [Compound 5, 2-phenyl-10,12,15,16-tetrahydroxy-8-methoxy-11-methyl-9,14-dioxo-6,7,9, 14-tetrahydronaphthaceno[1,2-g]phthalazin-1-one], the IC50 in data set [1] amounted to 200 nM; in data set [3] it was 430 nM. Also, the “Inhibition (of late phase eosinophilia)” value in data set [4] worked out at 85.0. In data set [4], the “Eosinophils B = eosinophils in the substance-treated group with ovalbumin challenge” value is recorded as 0.85 10^6/animal. `COc1c2c(c(O)c3c1C(=O)c1c(cc(O)c(C)c1O)C3=O)-c1c(cc3cnn(CCOC(C)=O)c(=O)c3c1O)CC2` [Compound 6, 2-(2-Acetoxyethyl)-10,12,15,16-tetrahydroxy-8-methoxy-11-methyl-9,14-dioxo-6,7,9,14-tetrahydronaphthaceno[1,2-g]phthalazin-1-one] showed a melting point above 350 °C. Still for that read-out and setting: the figure for `COC(=O)Oc1cc2c(c(O)c1C)C(=O)c1c(OC)c3c(c(O)c1C2=O)-c1c(cc2cnn(-c4ccccc4)c(=O)c2c1O)CC3` [Compound 7, 2-Phenyl-10,15,16-trihydroxy-8-methoxy-12-methoxycarbonyloxy-11-methyl-9,14-dioxo-6,7,9,14-tetrahydronaphthaceno[1,2-g]phthalazin-1-one] is above 350 °C. For the molecule `COc1c2c(c(O)c3c1C(=O)c1c(cc(O)c(C)c1O)C3=O)-c1c(cc3cnn(CCN)c(=O)c3c1O)CC2` [Compound 8, 2-(2-Aminoethyl)-10,12,15,16-tetrahydroxy-8-methoxy-11-methyl-9,14-dioxo-6,7,9,14-tetrahydronaphthaceno[1,2-g]phthalazin-1-one], the melting point was > 350 °C (dec.). In data set [2], this molecule came in with an IC50 of 2580 nM. This molecule also had an IC50 in data set [3] of 780 nM. Consider `Cc1c(O)cc2c(c1O)C(=O)c1c(O)c3c(c(O)c1C2=O)-c1c(cc2cnn(-c4ccccn4)c(=O)c2c1O)CC3` [Compound 9, 2-(2-Pyridyl)-8,10,12,15,16-pentahydroxy-11-methyl-9,14-dioxo-6,7,9,14-tetrahydronaphthaceno[1,2-g]phthalazin-1-one], for which the melting point is above 350 °C. In turn, `Cc1c(O)cc2c(c1O)C(=O)c1c(O)c3c(c(O)c1C2=O)-c1c(cc2cnn(-c4ccccc4)c(=O)c2c1O)CC3` [Compound 10, 2-Phenyl-8,10,12,15,16-pentahydroxy-11-methyl-9,14-dioxo-6,7,9,14-tetrahydronaphthaceno[1,2-g]phthalazin-1-one] came in with a melting point above 350 °C. Turning to `CCOC(Cn1ncc2cc3c(c(O)c2c1=O)-c1c(O)c2c(c(OC)c1CC3)C(=O)c1c(cc(O)c(C)c1O)C2=O)OCC` [Compound 11, 2-(2,2-Diethoxyethyl)-10,12,15,16-tetrahydroxy-8-methoxy-11-methyl-9,14-dioxo-6,7,9,14-tetrahydronaphthaceno[1,2-g]phthalazin-1-one], the melting point is 285 °C.

`COc1c2c(c(OC(C)=O)c3c1C(=O)c1c(cc(OC(C)=O)c(C)c1OC(C)=O)C3=O)-c1c(cc3cnn(-c4ccccc4)c(=O)c3c1OC(C)=O)CC2` [Compound 12, 2-Phenyl-10,12,15,16-tetraacetoxy-8-methoxy-11-methyl-9,14-dioxo-6,7,9,14-tetrahydronaphthaceno[1,2-g]phthalazin-1-one] registered a melting point of 273 °C. Same read-out and setting: then `COc1c2c(c(O)c3c1C(=O)c1c(cc(O)c(C)c1O)C3=O)-c1c(cc3cnn(-c4ncc[nH]4)c(=O)c3c1O)CC2` [Compound 15, 2-(2-Imidazolyl)-10,12,15,16-tetrahydroxy-8-methoxy-11-methyl-9,14-dioxo-6,7,9,14-tetrahydronaphthaceno[1,2-g]phthalazin-1-one], with > 350 °C (dec.). In data set [3], `COc1c2c(c(O)c3c1C(=O)c1c(cc(O)c(C)c1O)C3=O)-c1c(cc3cnn(-c4ccccn4)c(=O)c3c1O)CC2` [Compound 16, 2-(2-Pyridyl)-10,12,15,16-tetrahydroxy-8-methoxy-11-methyl-9,14-dioxo-6,7,9,14-tetrahydronaphtbaceno[1,2-g]phthalazin-1-one] returned an IC50 of 520 nM. This lies in the sub-micromolar range. The molecule `C=CCc1cc2c(c(O)c1C)C(=O)c1c(OC)c3c(c(O)c1C2=O)-c1c(cc2cnn(-c4ccccc4)c(=O)c2c1O)CC3` [Compound 17, 2-Phenyl-12-allyl-10,15,16-trihydroxy-8-methoxy-11-methyl-9,14-dioxo-6,7,9,14-tetrahydronaphthaceno[1,2-g]phthalazin-1-one] registered a melting point of 163 °C.
